# Source: PMC3454511 (The Journal of organic chemistry, 2012)
# Test system: not listed separately
# Assay: Microsomal stability, human
# Details: % parent remaining at 1 hour
row,microsomal stability human [% remaining],Compound
1,73,"CCCN1[C@H](CO)[C@H](c2ccccc2)[C@@H]1CN [26b, ((2S,3R,4R)-4-(Aminomethyl)-3-phenyl-1-propylazetidin-2-yl)methanol]"
2,88,"CCCN1[C@H](CO)[C@H](c2ccccc2)[C@@H]1C#N [26a, (2R,3R,4S)-4-(Carbonitrile)-3-phenyl-1-propylazetidine-2-hydroxymethyl]"
3,88,"CCCN1C(CO)C2c3ccccc3N(C(C)=O)CC21 (racemic) [31b, 1-((±)-1-(Hydroxymethyl)-2-propyl-1,2a,3,8b-tetrahydroazeto[2,3-c]quinolin-4 (2H)-yl) ethanone]"

# Test system: not listed separately
# Assay: Plasma stability, mouse
# Details: % parent remaining at 5 h
row,plasma stability mouse [% remaining],Compound
1,100,"CCCN1[C@H](CO)[C@H](c2ccccc2)[C@@H]1CN [26b, ((2S,3R,4R)-4-(Aminomethyl)-3-phenyl-1-propylazetidin-2-yl)methanol]"
2,110,"CCCN1[C@H](CO)[C@H](c2ccccc2)[C@@H]1C#N [26a, (2R,3R,4S)-4-(Carbonitrile)-3-phenyl-1-propylazetidine-2-hydroxymethyl]"
3,98,"CCCN1C(CO)C2c3ccccc3N(C(C)=O)CC21 (racemic) [31b, 1-((±)-1-(Hydroxymethyl)-2-propyl-1,2a,3,8b-tetrahydroazeto[2,3-c]quinolin-4 (2H)-yl) ethanone]"

# Test system: not listed separately
# Assay: Solubility in PBS and H2O, dry powder, 24 hour timepoint
# Details: H2O
row,solubility H2O [µM],Compound
1,>500,"CCCN1[C@H](CO)[C@H](c2ccccc2)[C@@H]1CN [26b, ((2S,3R,4R)-4-(Aminomethyl)-3-phenyl-1-propylazetidin-2-yl)methanol]"
2,>500,"CCCN1[C@H](CO)[C@H](c2ccccc2)[C@@H]1C#N [26a, (2R,3R,4S)-4-(Carbonitrile)-3-phenyl-1-propylazetidine-2-hydroxymethyl]"
3,496,"CCCN1C(CO)C2c3ccccc3N(C(C)=O)CC21 (racemic) [31b, 1-((±)-1-(Hydroxymethyl)-2-propyl-1,2a,3,8b-tetrahydroazeto[2,3-c]quinolin-4 (2H)-yl) ethanone]"

# Same assay, conditions: PBS
row,solubility PBS [µM],Compound
1,>500,"CCCN1[C@H](CO)[C@H](c2ccccc2)[C@@H]1CN [26b, ((2S,3R,4R)-4-(Aminomethyl)-3-phenyl-1-propylazetidin-2-yl)methanol]"
2,402,"CCCN1[C@H](CO)[C@H](c2ccccc2)[C@@H]1C#N [26a, (2R,3R,4S)-4-(Carbonitrile)-3-phenyl-1-propylazetidine-2-hydroxymethyl]"
3,489,"CCCN1C(CO)C2c3ccccc3N(C(C)=O)CC21 (racemic) [31b, 1-((±)-1-(Hydroxymethyl)-2-propyl-1,2a,3,8b-tetrahydroazeto[2,3-c]quinolin-4 (2H)-yl) ethanone]"

# Test system: not listed separately
# Assay: Microsomal stability, mouse
# Details: % parent remaining at 1 hour
row,microsomal stability mouse [% remaining],Compound
1,68,"CCCN1[C@H](CO)[C@H](c2ccccc2)[C@@H]1CN [26b, ((2S,3R,4R)-4-(Aminomethyl)-3-phenyl-1-propylazetidin-2-yl)methanol]"
2,62,"CCCN1[C@H](CO)[C@H](c2ccccc2)[C@@H]1C#N [26a, (2R,3R,4S)-4-(Carbonitrile)-3-phenyl-1-propylazetidine-2-hydroxymethyl]"
3,64,"CCCN1C(CO)C2c3ccccc3N(C(C)=O)CC21 (racemic) [31b, 1-((±)-1-(Hydroxymethyl)-2-propyl-1,2a,3,8b-tetrahydroazeto[2,3-c]quinolin-4 (2H)-yl) ethanone]"

# Test system: not listed separately
# Assay: Plasma protein binding by rapid-equilibrium dialysis, human
# Details: 37 °C for 5 h
row,protein binding human [% bound],Compound
1,7,"CCCN1[C@H](CO)[C@H](c2ccccc2)[C@@H]1CN [26b, ((2S,3R,4R)-4-(Aminomethyl)-3-phenyl-1-propylazetidin-2-yl)methanol]"
2,65,"CCCN1[C@H](CO)[C@H](c2ccccc2)[C@@H]1C#N [26a, (2R,3R,4S)-4-(Carbonitrile)-3-phenyl-1-propylazetidine-2-hydroxymethyl]"
3,18,"CCCN1C(CO)C2c3ccccc3N(C(C)=O)CC21 (racemic) [31b, 1-((±)-1-(Hydroxymethyl)-2-propyl-1,2a,3,8b-tetrahydroazeto[2,3-c]quinolin-4 (2H)-yl) ethanone]"

# Test system: not listed separately
# Assay: Plasma protein binding by rapid-equilibrium dialysis, mouse
# Details: 37 °C for 5 h
row,protein binding mouse [% bound],Compound
1,19,"CCCN1[C@H](CO)[C@H](c2ccccc2)[C@@H]1CN [26b, ((2S,3R,4R)-4-(Aminomethyl)-3-phenyl-1-propylazetidin-2-yl)methanol]"
2,65,"CCCN1[C@H](CO)[C@H](c2ccccc2)[C@@H]1C#N [26a, (2R,3R,4S)-4-(Carbonitrile)-3-phenyl-1-propylazetidine-2-hydroxymethyl]"
3,20,"CCCN1C(CO)C2c3ccccc3N(C(C)=O)CC21 (racemic) [31b, 1-((±)-1-(Hydroxymethyl)-2-propyl-1,2a,3,8b-tetrahydroazeto[2,3-c]quinolin-4 (2H)-yl) ethanone]"

# Test system: not listed separately
# Assay: Hepatocyte stability, human
# Details: % parent remaining at 2 hour
row,hepatocytes human [% remaining],Compound
1,103,"CCCN1[C@H](CO)[C@H](c2ccccc2)[C@@H]1CN [26b, ((2S,3R,4R)-4-(Aminomethyl)-3-phenyl-1-propylazetidin-2-yl)methanol]"
2,54,"CCCN1[C@H](CO)[C@H](c2ccccc2)[C@@H]1C#N [26a, (2R,3R,4S)-4-(Carbonitrile)-3-phenyl-1-propylazetidine-2-hydroxymethyl]"
3,32,"CCCN1C(CO)C2c3ccccc3N(C(C)=O)CC21 (racemic) [31b, 1-((±)-1-(Hydroxymethyl)-2-propyl-1,2a,3,8b-tetrahydroazeto[2,3-c]quinolin-4 (2H)-yl) ethanone]"

# Test system: Caco-2 monolayer
# Assay: Bidirectional Caco-2 permeability
# Assay type: in vitro ADME
# Details: A-B direction
row,Caco-2 A-B,Compound
1,16 10^−6 cm.s^−1,"CCCN1[C@H](CO)[C@H](c2ccccc2)[C@@H]1CN [26b, ((2S,3R,4R)-4-(Aminomethyl)-3-phenyl-1-propylazetidin-2-yl)methanol]"
2,67 10^−6 cm.s^−1,"CCCN1[C@H](CO)[C@H](c2ccccc2)[C@@H]1C#N [26a, (2R,3R,4S)-4-(Carbonitrile)-3-phenyl-1-propylazetidine-2-hydroxymethyl]"
3,48 10^−6 cm.s^−1,"CCCN1C(CO)C2c3ccccc3N(C(C)=O)CC21 (racemic) [31b, 1-((±)-1-(Hydroxymethyl)-2-propyl-1,2a,3,8b-tetrahydroazeto[2,3-c]quinolin-4 (2H)-yl) ethanone]"

# Same assay, conditions: B-A direction
row,Caco-2 B-A,Compound
1,8 10^−6 cm.s^−1,"CCCN1[C@H](CO)[C@H](c2ccccc2)[C@@H]1CN [26b, ((2S,3R,4R)-4-(Aminomethyl)-3-phenyl-1-propylazetidin-2-yl)methanol]"
2,49 10^−6 cm.s^−1,"CCCN1[C@H](CO)[C@H](c2ccccc2)[C@@H]1C#N [26a, (2R,3R,4S)-4-(Carbonitrile)-3-phenyl-1-propylazetidine-2-hydroxymethyl]"
3,51 10^−6 cm.s^−1,"CCCN1C(CO)C2c3ccccc3N(C(C)=O)CC21 (racemic) [31b, 1-((±)-1-(Hydroxymethyl)-2-propyl-1,2a,3,8b-tetrahydroazeto[2,3-c]quinolin-4 (2H)-yl) ethanone]"

# Test system: not listed separately
# Assay: Plasma stability, human
# Details: % parent remaining at 5 h
row,plasma stability human [% remaining],Compound
1,92,"CCCN1[C@H](CO)[C@H](c2ccccc2)[C@@H]1CN [26b, ((2S,3R,4R)-4-(Aminomethyl)-3-phenyl-1-propylazetidin-2-yl)methanol]"
2,109,"CCCN1[C@H](CO)[C@H](c2ccccc2)[C@@H]1C#N [26a, (2R,3R,4S)-4-(Carbonitrile)-3-phenyl-1-propylazetidine-2-hydroxymethyl]"
3,106,"CCCN1C(CO)C2c3ccccc3N(C(C)=O)CC21 (racemic) [31b, 1-((±)-1-(Hydroxymethyl)-2-propyl-1,2a,3,8b-tetrahydroazeto[2,3-c]quinolin-4 (2H)-yl) ethanone]"

# Test system: not listed separately
# Assay: BBB parallel artificial membrane permeability assay
# Assay type: in vitro ADME
# Details: Pe
row,BBB PAMPA,Compound
1,83 10^−6 cm s^−1,"CCCN1[C@H](CO)[C@H](c2ccccc2)[C@@H]1CN [26b, ((2S,3R,4R)-4-(Aminomethyl)-3-phenyl-1-propylazetidin-2-yl)methanol]"
2,14 10^−6 cm s^−1,"CCCN1C(CO)C2c3ccccc3N(C(C)=O)CC21 (racemic) [31b, 1-((±)-1-(Hydroxymethyl)-2-propyl-1,2a,3,8b-tetrahydroazeto[2,3-c]quinolin-4 (2H)-yl) ethanone]"

# Test system: not listed separately
# Assay: Hepatocyte stability, mouse
# Details: % parent remaining at 2 hour
row,hepatocytes mouse [% remaining],Compound
1,103,"CCCN1[C@H](CO)[C@H](c2ccccc2)[C@@H]1CN [26b, ((2S,3R,4R)-4-(Aminomethyl)-3-phenyl-1-propylazetidin-2-yl)methanol]"
2,59,"CCCN1[C@H](CO)[C@H](c2ccccc2)[C@@H]1C#N [26a, (2R,3R,4S)-4-(Carbonitrile)-3-phenyl-1-propylazetidine-2-hydroxymethyl]"
3,71,"CCCN1C(CO)C2c3ccccc3N(C(C)=O)CC21 (racemic) [31b, 1-((±)-1-(Hydroxymethyl)-2-propyl-1,2a,3,8b-tetrahydroazeto[2,3-c]quinolin-4 (2H)-yl) ethanone]"
